This assay deals with T1, TNK2 (ACK) (Homo sapiens, UniProt Q07912).
T1 construct: purchased Thermo Fisher Scientific (Life Technologies) SelectScreen
The experiment in a line: SelectScreen LanthaScreen. It is filed as binding. Particulars: read-out: % displacement. The method, boiled down: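 Percent values come from Thermo SelectScreen profiling of NU5455, combining activity and binding assays. CSF1R was run in Z'LYTE format at Km app ATP, and CAMK1 in Adapta format with ATP listed at 10.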
In general terms: TR-FRET usually uses a lanthanide donor and a delayed reading to cut background.

T1 sequence (Q07912 whole entry): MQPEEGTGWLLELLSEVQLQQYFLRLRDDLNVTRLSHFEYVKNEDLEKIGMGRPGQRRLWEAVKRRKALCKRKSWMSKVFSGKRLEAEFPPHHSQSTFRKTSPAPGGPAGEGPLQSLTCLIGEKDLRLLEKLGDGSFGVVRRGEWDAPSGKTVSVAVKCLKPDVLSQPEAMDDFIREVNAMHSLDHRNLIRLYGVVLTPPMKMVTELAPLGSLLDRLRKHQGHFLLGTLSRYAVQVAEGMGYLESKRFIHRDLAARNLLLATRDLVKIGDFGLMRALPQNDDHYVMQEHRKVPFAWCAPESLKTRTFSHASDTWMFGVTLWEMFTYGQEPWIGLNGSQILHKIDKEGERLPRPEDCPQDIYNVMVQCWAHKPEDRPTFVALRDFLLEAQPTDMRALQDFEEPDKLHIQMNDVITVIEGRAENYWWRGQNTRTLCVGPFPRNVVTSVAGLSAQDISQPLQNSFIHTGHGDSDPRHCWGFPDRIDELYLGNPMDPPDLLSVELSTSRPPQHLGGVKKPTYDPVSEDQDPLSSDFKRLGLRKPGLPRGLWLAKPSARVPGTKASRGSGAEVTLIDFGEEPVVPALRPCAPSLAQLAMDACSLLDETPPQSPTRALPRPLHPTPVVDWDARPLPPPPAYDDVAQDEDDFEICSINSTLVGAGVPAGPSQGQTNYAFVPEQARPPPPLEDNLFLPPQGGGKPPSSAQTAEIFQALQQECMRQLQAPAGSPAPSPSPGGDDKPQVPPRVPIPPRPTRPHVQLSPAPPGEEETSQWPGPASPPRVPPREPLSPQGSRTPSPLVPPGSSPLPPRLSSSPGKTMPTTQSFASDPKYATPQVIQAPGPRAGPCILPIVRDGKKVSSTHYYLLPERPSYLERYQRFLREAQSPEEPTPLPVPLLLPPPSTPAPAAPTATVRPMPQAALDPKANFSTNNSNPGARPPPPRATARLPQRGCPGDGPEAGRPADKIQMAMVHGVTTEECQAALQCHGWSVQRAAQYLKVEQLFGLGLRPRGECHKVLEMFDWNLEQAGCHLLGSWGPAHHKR

`CN(C(=O)CN1CCOCC1)c1ccc2sc3c(-c4cccc5c(=O)cc(N6CC7CCC(C6)O7)oc45)cccc3c2c1` [NU5455]: the inhibition at 1 µM was determined as 1.8%.

(Values after PMC6934184, “Selective DNA-PKcs inhibition extends the therapeutic index of localized radiotherapy and chemotherapy” (The Journal of Clinical Investigation, 2019).)
